Measurements as given in ChEMBL document CHEMBL1134175, “Nipecotic and iso-nipecotic amides as potent and selective somatostatin subtype-2 receptor agonists” (Bioorg Med Chem Lett, 2001).

target: Somatostatin receptor type 5 (Homo sapiens, UniProt P35346); experiment: Binding affinity to hsst5 was determined
Sequence (P35346 whole entry): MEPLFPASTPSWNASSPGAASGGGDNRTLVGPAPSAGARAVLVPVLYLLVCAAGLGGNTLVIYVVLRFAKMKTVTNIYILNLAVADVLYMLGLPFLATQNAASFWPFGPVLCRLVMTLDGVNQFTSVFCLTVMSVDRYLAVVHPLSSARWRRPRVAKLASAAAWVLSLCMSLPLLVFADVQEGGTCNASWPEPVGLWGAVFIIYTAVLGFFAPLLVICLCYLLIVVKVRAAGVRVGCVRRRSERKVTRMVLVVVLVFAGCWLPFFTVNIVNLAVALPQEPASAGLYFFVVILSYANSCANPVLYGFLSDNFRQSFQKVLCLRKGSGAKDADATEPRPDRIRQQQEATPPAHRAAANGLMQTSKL

Ki [nM] | Compound
> 10000 | CC(C)S(=O)(=O)N1CCC(C(=O)NC(C(=O)N[C@@H](CCCCN)C(=O)OC(C)(C)C)[C@@H](C)c2c[nH]c3ccccc23)CC1 (stereo not given in full)
2860 | CC(C)C(=O)N1CCC(C(=O)NC(C(=O)N[C@@H](CCCCN)C(=O)OC(C)(C)C)[C@@H](C)c2c[nH]c3ccccc23)CC1 (stereo not given in full)
416 | C[C@@H](c1c[nH]c2ccccc12)C(NC(=O)C1CCN(C(=O)c2ccccc2)CC1)C(=O)N[C@@H](CCCCN)C(=O)OC(C)(C)C (stereo not given in full)
333 | C[C@@H](c1c[nH]c2ccccc12)C(NC(=O)C1CCN(Cc2ccccc2)CC1)C(=O)N[C@@H](CCCCN)C(=O)OC(C)(C)C (stereo not given in full)

target: Somatostatin receptor type 3 (Homo sapiens, UniProt P32745); experiment: Binding affinity to hsst3 was determined
Sequence (P32745 whole entry): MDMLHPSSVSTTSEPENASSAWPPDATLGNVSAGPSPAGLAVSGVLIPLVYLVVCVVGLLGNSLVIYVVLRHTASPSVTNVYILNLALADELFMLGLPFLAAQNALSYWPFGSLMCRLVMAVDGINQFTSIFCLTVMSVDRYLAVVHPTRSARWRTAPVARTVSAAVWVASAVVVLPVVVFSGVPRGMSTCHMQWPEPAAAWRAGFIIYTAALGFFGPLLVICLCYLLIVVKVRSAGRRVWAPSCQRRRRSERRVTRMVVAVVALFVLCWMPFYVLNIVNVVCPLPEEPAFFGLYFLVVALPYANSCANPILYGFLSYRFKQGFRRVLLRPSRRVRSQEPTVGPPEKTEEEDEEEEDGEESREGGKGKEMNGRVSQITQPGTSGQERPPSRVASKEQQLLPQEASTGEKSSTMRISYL

Ki [nM] | Compound
3750 | CC(C)S(=O)(=O)N1CCC(C(=O)NC(C(=O)N[C@@H](CCCCN)C(=O)OC(C)(C)C)[C@@H](C)c2c[nH]c3ccccc23)CC1 (stereo not given in full)
5250 | CC(C)C(=O)N1CCC(C(=O)NC(C(=O)N[C@@H](CCCCN)C(=O)OC(C)(C)C)[C@@H](C)c2c[nH]c3ccccc23)CC1 (stereo not given in full)
2660 | C[C@@H](c1c[nH]c2ccccc12)C(NC(=O)C1CCN(C(=O)c2ccccc2)CC1)C(=O)N[C@@H](CCCCN)C(=O)OC(C)(C)C (stereo not given in full)

tested on: not listed separately; experiment: Ratio of binding affinity of h5 to that of binding affinity of h2

Ratio | Compound
> 83 | CC(C)S(=O)(=O)N1CCC(C(=O)NC(C(=O)N[C@@H](CCCCN)C(=O)OC(C)(C)C)[C@@H](C)c2c[nH]c3ccccc23)CC1 (stereo not given in full)
190 | CC(C)C(=O)N1CCC(C(=O)NC(C(=O)N[C@@H](CCCCN)C(=O)OC(C)(C)C)[C@@H](C)c2c[nH]c3ccccc23)CC1 (stereo not given in full)
832 | C[C@@H](c1c[nH]c2ccccc12)C(NC(=O)C1CCN(C(=O)c2ccccc2)CC1)C(=O)N[C@@H](CCCCN)C(=O)OC(C)(C)C (stereo not given in full)
133 | C[C@@H](c1c[nH]c2ccccc12)C(NC(=O)C1CCN(Cc2ccccc2)CC1)C(=O)N[C@@H](CCCCN)C(=O)OC(C)(C)C (stereo not given in full)

target: T1, Somatostatin receptor type 2 (Homo sapiens, UniProt P30874); experiment: Binding affinity to Somatostatin receptor type 2 was determined
T1 sequence (P30874 whole entry): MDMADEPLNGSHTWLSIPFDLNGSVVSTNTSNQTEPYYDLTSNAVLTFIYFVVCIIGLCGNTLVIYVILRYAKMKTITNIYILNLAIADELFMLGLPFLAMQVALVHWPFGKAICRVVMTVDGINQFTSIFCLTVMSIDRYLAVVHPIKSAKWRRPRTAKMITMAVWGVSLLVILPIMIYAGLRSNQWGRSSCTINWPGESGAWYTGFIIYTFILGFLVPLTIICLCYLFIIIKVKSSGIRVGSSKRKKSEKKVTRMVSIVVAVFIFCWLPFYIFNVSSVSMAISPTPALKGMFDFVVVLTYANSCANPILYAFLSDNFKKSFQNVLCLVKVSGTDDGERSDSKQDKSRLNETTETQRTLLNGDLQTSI

Ki [nM] | Compound
120 | CC(C)S(=O)(=O)N1CCC(C(=O)NC(C(=O)N[C@@H](CCCCN)C(=O)OC(C)(C)C)[C@@H](C)c2c[nH]c3ccccc23)CC1 (stereo not given in full)
15 | CC(C)C(=O)N1CCC(C(=O)NC(C(=O)N[C@@H](CCCCN)C(=O)OC(C)(C)C)[C@@H](C)c2c[nH]c3ccccc23)CC1 (stereo not given in full)
0.5 | C[C@@H](c1c[nH]c2ccccc12)C(NC(=O)C1CCN(C(=O)c2ccccc2)CC1)C(=O)N[C@@H](CCCCN)C(=O)OC(C)(C)C (stereo not given in full)
2.5 | C[C@@H](c1c[nH]c2ccccc12)C(NC(=O)C1CCN(Cc2ccccc2)CC1)C(=O)N[C@@H](CCCCN)C(=O)OC(C)(C)C (stereo not given in full)

target: T1, Somatostatin receptor type 2; experiment: Binding affinity to human somatostatin 2 receptor

Compound | Ki [nM]
COc1ccc(S(=O)(=O)N2CCCC(C(=O)NC(C(=O)N[C@@H](CCCCN)C(=O)OC(C)(C)C)[C@@H](C)c3c[nH]c4ccccc34)C2)cc1OC (stereo not given in full) | 23
C[C@@H](c1c[nH]c2ccccc12)C(NC(=O)C1CCCN(C(=O)c2cccnc2)C1)C(=O)N[C@@H](CCCCN)C(=O)OC(C)(C)C (stereo not given in full) | 85
CC(C)CC(=O)N1CCCC(C(=O)NC(C(=O)N[C@@H](CCCCN)C(=O)OC(C)(C)C)[C@@H](C)c2c[nH]c3ccccc23)C1 (stereo not given in full) | 23
CC(C)S(=O)(=O)N1CCCC(C(=O)NC(C(=O)N[C@@H](CCCCN)C(=O)OC(C)(C)C)[C@@H](C)c2c[nH]c3ccccc23)C1 (stereo not given in full) | 35
C[C@@H](c1c[nH]c2ccccc12)C(NC(=O)C1CCCN(C(=O)Nc2ccccc2)C1)C(=O)N[C@@H](CCCCN)C(=O)OC(C)(C)C (stereo not given in full) | 11
C[C@@H](c1c[nH]c2ccccc12)C(NC(=O)C1CCCN(C(=O)c2ccc3[nH]cnc3c2)C1)C(=O)N[C@@H](CCCCN)C(=O)OC(C)(C)C (stereo not given in full) | 85
C[C@@H](c1c[nH]c2ccccc12)C(NC(=O)C1CCCNC1)C(=O)N[C@@H](CCCCN)C(=O)OC(C)(C)C (stereo not given in full) | 178
CC(=O)Nc1cccc(C(=O)N2CCCC(C(=O)NC(C(=O)N[C@@H](CCCCN)C(=O)OC(C)(C)C)[C@@H](C)c3c[nH]c4ccccc34)C2)c1 (stereo not given in full) | 47
C[C@@H](c1c[nH]c2ccccc12)C(NC(=O)C1CCCN(Cc2ccccc2-c2ccccc2)C1)C(=O)N[C@@H](CCCCN)C(=O)OC(C)(C)C (stereo not given in full) | 21
C[C@@H](c1c[nH]c2ccccc12)C(NC(=O)C1CCCN(C(=O)c2ccccc2)C1)C(=O)N[C@@H](CCCCN)C(=O)OC(C)(C)C (stereo not given in full) | 10
C[C@@H](c1c[nH]c2ccccc12)C(NC(=O)C1CCCN(C(=O)c2ccc3c(c2)OCO3)C1)C(=O)N[C@@H](CCCCN)C(=O)OC(C)(C)C (stereo not given in full) | 36
C[C@@H](c1c[nH]c2ccccc12)C(NC(=O)C1CCCN(C(c2ccccc2)c2ccccc2)C1)C(=O)N[C@@H](CCCCN)C(=O)OC(C)(C)C (stereo not given in full) | 31
C[C@@H](c1c[nH]c2ccccc12)C(NC(=O)C1CCCN(Cc2ccc3ccccc3c2)C1)C(=O)N[C@@H](CCCCN)C(=O)OC(C)(C)C (stereo not given in full) | 17
COc1cccc(CN2CCCC(C(=O)NC(C(=O)N[C@@H](CCCCN)C(=O)OC(C)(C)C)[C@@H](C)c3c[nH]c4ccccc34)C2)c1 (stereo not given in full) | 10
C[C@@H](c1c[nH]c2ccccc12)C(NC(=O)C1CCCN(S(=O)(=O)c2ccc(F)cc2)C1)C(=O)N[C@@H](CCCCN)C(=O)OC(C)(C)C (stereo not given in full) | 11
C[C@@H](c1c[nH]c2ccccc12)C(NC(=O)C1CCCN(Cc2ccc3c(c2Cl)OCO3)C1)C(=O)N[C@@H](CCCCN)C(=O)OC(C)(C)C (stereo not given in full) | 12
C[C@@H](c1c[nH]c2ccccc12)C(NC(=O)C1CCCN(S(=O)(=O)c2cccs2)C1)C(=O)N[C@@H](CCCCN)C(=O)OC(C)(C)C (stereo not given in full) | 14
C[C@@H](c1c[nH]c2ccccc12)C(NC(=O)C1CCCN(C(=O)Cc2ccc3c(c2)OCO3)C1)C(=O)N[C@@H](CCCCN)C(=O)OC(C)(C)C (stereo not given in full) | 10
COC(=O)c1cccc(CN2CCCC(C(=O)NC(C(=O)N[C@@H](CCCCN)C(=O)OC(C)(C)C)[C@@H](C)c3c[nH]c4ccccc34)C2)c1 (stereo not given in full) | 11
CC(C)NC(=O)N1CCCC(C(=O)NC(C(=O)N[C@@H](CCCCN)C(=O)OC(C)(C)C)[C@@H](C)c2c[nH]c3ccccc23)C1 (stereo not given in full) | 95

More lines, now with the values ahead:

Ki [nM] | Compound
9 | COc1cccc(NC(=O)N2CCCC(C(=O)NC(C(=O)N[C@@H](CCCCN)C(=O)OC(C)(C)C)[C@@H](C)c3c[nH]c4ccccc34)C2)c1 (stereo not given in full)
8.6 | COC(=O)[C@H](Cc1ccccc1)NC(=O)N1CCCC(C(=O)NC(C(=O)N[C@@H](CCCCN)C(=O)OC(C)(C)C)[C@@H](C)c2c[nH]c3ccccc23)C1 (stereo not given in full)
7.2 | C[C@@H](c1c[nH]c2ccccc12)C(NC(=O)C1CCCN(C(=O)NC2CCCCC2)C1)C(=O)N[C@@H](CCCCN)C(=O)OC(C)(C)C (stereo not given in full)
5.7 | C[C@@H](c1c[nH]c2ccccc12)C(NC(=O)C1CCCN(Cc2cccc(F)c2F)C1)C(=O)N[C@@H](CCCCN)C(=O)OC(C)(C)C (stereo not given in full)
5 | C[C@@H](c1c[nH]c2ccccc12)C(NC(=O)C1CCCN(Cc2cccc(F)c2)C1)C(=O)N[C@@H](CCCCN)C(=O)OC(C)(C)C (stereo not given in full)
5 | C[C@@H](c1c[nH]c2ccccc12)C(NC(=O)C1CCCN(C(=O)C(c2ccccc2)c2ccccc2)C1)C(=O)N[C@@H](CCCCN)C(=O)OC(C)(C)C (stereo not given in full)
4.6 | C[C@@H](c1c[nH]c2ccccc12)C(NC(=O)C1CCCN(Cc2ccccc2)C1)C(=O)N[C@@H](CCCCN)C(=O)OC(C)(C)C (stereo not given in full)
2.9 | C[C@@H](c1c[nH]c2ccccc12)C(NC(=O)C1CCCN(Cc2ccc(F)c(F)c2)C1)C(=O)N[C@@H](CCCCN)C(=O)OC(C)(C)C (stereo not given in full)
2.8 | C[C@@H](c1c[nH]c2ccccc12)C(NC(=O)C1CCCN(C(=O)C(O)(c2ccccc2)c2ccccc2)C1)C(=O)N[C@@H](CCCCN)C(=O)OC(C)(C)C (stereo not given in full)
2.3 | C[C@@H](c1c[nH]c2ccccc12)C(NC(=O)C1CCCN(C(=O)Cc2cc(F)cc(F)c2)C1)C(=O)N[C@@H](CCCCN)C(=O)OC(C)(C)C (stereo not given in full)
